The values below come from patent US20110105435A1, “THERAPY OPTION FOR RECOLORATION OF HAIR VIA BISPHOSPHONATES BY PHYSIOLOGICAL REPIGMENTATION WITH AGE-RELATED AND/OR PREMATURE "GRAYED" PATIENTS” (priority 2007, published 2011).

The subject of this assay is scalp hair. The assay is described as follows: Case observation: scalp hair recoloration in a myeloma patient on zoledronate monotherapy. Type of assay: in vivo, human. The following applies: Zometa 4 mg i.v. once monthly. On the procedure:
[…] Multiple myeloma is a non-Hodgkin lymphoma and represents one of the most frequent malignant bone diseases.
Multiple myeloma in Stage I according to Durie and Salmon without osteolytic activity was diagnosed in the patient in November 2006. Since Stage I myeloma without clinically relevant symptoms are generally not aggressively treated with cytotostatic substances, the patient was included in an experimental monotherapy scheme applying Zometa® (active ingriedient: zoledronate), 4 mg i.v. in calcium-free infusion solution on a once monthly basis.
Zoledronate treatment is pursued for 6 months with a total of 6 therapy cycles until progression of myeloma (proliferation of plasma cell population in the bone marrow) made a more aggressive therapy approach necessary.
A suprising side-effect was observed:
The patient reported that they were black-haired during their teens and twens.
Since zoledronate was applied in monotherapy and no other relevant measures were deployed, the surprising change in hair coloration in the respective patient was caused by the bisphosphonate therapy of the underlying myeloma disease.

Consider `O=P(O)(O)C(O)(Cn1ccnc1)P(=O)(O)O` [zoledronate], for which the “change in hair coloration (repigmentation of white scalp hair)” value (Stage I multiple myeloma patient, completely white-haired at therapy induction, 6 cycles, monotherapy) is “increasingly developed black scalp hair”. The “duration of treatment until white appearance switched to natural-looking dark-greyish shape” value (myeloma patient) was 3-4 months.
